TGI and GI50 data for 23 compounds are collected here from PubChem BioAssay (NCI).

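Dose response: 5 concentrations. Exposure: 48 h. Format: 96-well plates. Endpoint: linear interpolation; highest concentration if not reached. Here, GI50 denotes the concentration required for 50% inhibition of growth. Definition used: TGI = concentration required for complete inhibition of growth.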 Where a SMILES comes first, the peptide text is derived from it. [ ]: non-standard residue; d: D form. Phe(F5) = N[CH](Cc1c(F)c(F)c(F)c(F)c1F)C(=O)O Bounds are passed on as bounds.

Among the test systems are OVCAR-5 ovarian; TK-10 renal; 786-0 renal; DLD-1 colon; M19-MEL melanoma; SR leukemia; NCI-H23 lung; T-47D breast; MDA-MB-435; NCI-H226 lung.
What all share (experiment): DTP human tumour cell line panel, 48 h

With `CN(C)c1ccc2c(NCCCCCCNc3ccnc4cc(N(C)C)ccc34)ccnc2c1`, the TGI in the assay on OVCAR-5 ovarian was 79.6 µM; in the assay on TK-10 renal, 32.2 µM; with 786-0 renal, 45.3 µM; with DLD-1 colon, over 100 µM; in the assay with M19-MEL melanoma, 95.3 µM; in the assay with SR leukemia, over 100 µM. Further, the TGI in the assay with NCI-H23 lung was determined as 27.2 µM.
On to `COC(=O)C(CC(C)C)NC(=O)C(Cc1cnc[nH]1)NC(=O)CNC(=O)C(NC(=O)C(C)NC(=O)C(Cc1c[nH]c2ccccc12)NC(=O)C(CCC(=O)O)NC(=O)C(N)Cc1c(F)c(F)c(F)c(F)c1F)C(C)C` (stereo unspecified) (H-[Phe(F5)]EWAVGHL-OMe; configuration not given here), for which the TGI in the assay on OVCAR-5 ovarian was over 12.5 µM; in the assay with 786-0 renal it was over 100 µM; in the assay on DLD-1 colon it was over 100 µM; in the assay with M19-MEL melanoma, over 100 µM; in the assay on SR leukemia it was over 100 µM; in the assay on T-47D breast, over 12.5 µM. For the same compound, the TGI was over 12.5 µM in the assay with MDA-MB-435, over 12.5 µM in the assay with NCI-H226 lung and over 100 µM with NCI-H23 lung. The GI50 in the assay on 786-0 renal, with SR leukemia and in the assay with NCI-H23 lung was over 100 µM each time.
`CC1=C2CCCC2C/C(=N/Nc2ccc([N+](=O)[O-])cc2[N+](=O)[O-])CC1` (stereo unspecified): the TGI with OVCAR-5 ovarian, in the assay on TK-10 renal, in the assay with 786-0 renal, in the assay with M19-MEL melanoma, in the assay on SR leukemia and with NCI-H226 lung was over 100 µM in each case. The compound also returned a TGI in the assay on NCI-H23 lung of over 100 µM.
On to `CCOP(=O)(OCC)C1CCCCOC1=O` (stereo unspecified), for which the TGI with TK-10 renal, in the assay on 786-0 renal, with DLD-1 colon, in the assay on M19-MEL melanoma and in the assay with NCI-H23 lung was over 100 µM in each case.
Regarding `Nc1cc(=O)[nH]c(SC2=NC(N)CC(O)C2)n1` (stereo unspecified), the TGI in the assay on OVCAR-5 ovarian, in the assay on TK-10 renal, in the assay on 786-0 renal, with DLD-1 colon, in the assay with M19-MEL melanoma and with SR leukemia was over 100 µM throughout. Moreover, the concentration for total growth inhibition (TGI) with NCI-H226 lung and with NCI-H23 lung was over 100 µM throughout.
As to `Cc1ccc2c(c1)C1(C)OC(CC(N)C1O)O2` (stereo unspecified), the TGI in the assay on TK-10 renal, in the assay on 786-0 renal, with DLD-1 colon, with M19-MEL melanoma, in the assay on NCI-H226 lung and in the assay on NCI-H23 lung was over 100 µM throughout.
As for `CCCC(O)[C@@H](O)c1ccc2c(c1O)C(=O)c1c(OC)cccc1C2=O` (stereo partly specified), the TGI with OVCAR-5 ovarian is over 100 µM; with TK-10 renal it was over 100 µM; with 786-0 renal, over 100 µM; with DLD-1 colon, over 100 µM; with M19-MEL melanoma, 61.5 µM; in the assay on SR leukemia, 66.6 µM. For the same compound, the concentration for total growth inhibition (TGI) with NCI-H226 lung and in the assay with NCI-H23 lung was over 100 µM throughout.
Regarding `CC1(Sc2ccccc2)CN(Cc2ccccc2)C1=O` (stereo unspecified), the TGI in the assay with TK-10 renal, with 786-0 renal, in the assay on DLD-1 colon, in the assay on M19-MEL melanoma, with NCI-H226 lung and with NCI-H23 lung was over 100 µM throughout.
On to `COC(=O)CCC(=O)N1Cc2cc(C)ccc2N(C(=O)CCC(=O)OC)Cc2cc(C)ccc21`, for which the TGI with OVCAR-5 ovarian, in the assay on TK-10 renal, in the assay with 786-0 renal, in the assay on DLD-1 colon, with M19-MEL melanoma and with SR leukemia was over 100 µM each time. Besides, the TGI in the assay with NCI-H226 lung and in the assay on NCI-H23 lung was over 100 µM each time.
Consider `O=C(NCCCCCCNC(=O)c1cccc2ccccc12)c1cccc2ccccc12`, for which the TGI in the assay with OVCAR-5 ovarian was over 100 µM; with TK-10 renal it was 36.9 µM; in the assay with 786-0 renal, 80.7 µM; in the assay with DLD-1 colon it was over 100 µM; with SR leukemia it was over 100 µM; in the assay with NCI-H226 lung it was 53 µM. In the assay on NCI-H23 lung, this compound displayed a TGI of over 100 µM.
Turning to `CCOC(=O)C=C1CCN(C(=O)c2ccccc2)CC1`, the TGI with OVCAR-5 ovarian, in the assay with TK-10 renal, with 786-0 renal, with DLD-1 colon, in the assay on M19-MEL melanoma and in the assay with SR leukemia was over 100 µM throughout. The TGI in the assay with NCI-H23 lung is over 100 µM.
For the compound `NC(=O)OCC(COc1ccc(Cl)cc1)OC(=O)c1ccccc1Cl` (stereo unspecified), the TGI with OVCAR-5 ovarian came to 62.8 µM; in the assay with TK-10 renal it was 79.9 µM; in the assay on 786-0 renal, 36.6 µM; in the assay on DLD-1 colon it was 37.1 µM; with SR leukemia, 51.7 µM; in the assay on NCI-H226 lung it was 60.2 µM. The TGI in the assay with NCI-H23 lung came out at 44.8 µM.
Turning to `COC(=O)[C@@H]1CSC(=S)N1C(=O)C[C@H]1CC=CC[C@H]1CC(=O)Sc1ccccc1`, the TGI in the assay with OVCAR-5 ovarian was found to be 33.8 µM; with 786-0 renal it was 32.3 µM; with DLD-1 colon it was 35.3 µM; in the assay with M19-MEL melanoma, 47.1 µM; with SR leukemia it was 27.9 µM; with NCI-H226 lung, 47.2 µM. Further, in the assay on NCI-H23 lung, the TGI came to 46.5 µM.
As for `CN1CCc2c1nc(-c1ccccc1)c1c2N(C)CC1`, the TGI in the assay with OVCAR-5 ovarian, with TK-10 renal, with 786-0 renal, with DLD-1 colon, in the assay on M19-MEL melanoma and in the assay on NCI-H23 lung was over 100 µM each time.
Take `NCC1(N2CCOCC2)C2CCCC21CO` (stereo unspecified): the TGI in the assay with OVCAR-5 ovarian, with 786-0 renal, with DLD-1 colon, in the assay on M19-MEL melanoma, with SR leukemia and in the assay with NCI-H226 lung was over 100 µM throughout. The same compound returned a TGI with NCI-H23 lung of over 100 µM.
Take `CS(=O)(=O)CC1=Nc2nnc(CCCCCCCc3nnc4n3C(=O)C(CS(C)(=O)=O)=N4)n2C1=O`: the TGI with OVCAR-5 ovarian, in the assay with TK-10 renal, with 786-0 renal, with M19-MEL melanoma, in the assay with SR leukemia and with NCI-H226 lung was over 100 µM each time. In addition, the TGI in the assay on NCI-H23 lung is over 100 µM.
`CC(=O)[O][Pb]([O]C(C)=O)([c]1ccccc1)[c]1ccccc1`: the GI50 in the assay with OVCAR-5 ovarian was 25.9 µM; with TK-10 renal it was over 53.1 µM; with 786-0 renal, 3.53 µM; in the assay with DLD-1 colon, 6.38 µM; in the assay on M19-MEL melanoma it was 2.77 µM; in the assay on SR leukemia, 6.22 µM. Besides, the GI50 in the assay with NCI-H226 lung is 64.2 µM; in the assay on NCI-H23 lung it was 2.35 µM. Also, the TGI was over 100 µM in the assay on OVCAR-5 ovarian; over 100 µM in the assay with TK-10 renal; over 100 µM with 786-0 renal; over 100 µM with DLD-1 colon; 9.89 µM with M19-MEL melanoma; over 100 µM in the assay on SR leukemia. The results for the TGI in the assay with NCI-H226 lung and in the assay with NCI-H23 lung were over 100 µM and 13.4 µM, respectively.
Consider `COC12C=CC(CC1)c1c(O)ccc(O)c12` (stereo unspecified), for which the TGI with OVCAR-5 ovarian was over 100 µM; in the assay with TK-10 renal, over 67.1 µM; in the assay on 786-0 renal, over 100 µM; in the assay with DLD-1 colon, over 100 µM; in the assay on M19-MEL melanoma it was over 55.4 µM; in the assay on SR leukemia it was 36.3 µM. For the same compound, the TGI with NCI-H226 lung and with NCI-H23 lung was over 100 µM each time.
As to `COC(=O)c1[nH]c(=S)[nH]c(=O)c1-c1ccc(Cl)cc1`, the TGI in the assay on OVCAR-5 ovarian, in the assay with TK-10 renal, in the assay with 786-0 renal, with DLD-1 colon, in the assay with M19-MEL melanoma and with SR leukemia was over 50 µM throughout. The TGI in the assay with NCI-H226 lung and in the assay with NCI-H23 lung was over 50 µM throughout.
Turning to `O=C(CCn1[nH]c(=O)c(Cl)c(Cl)c1=O)NOCCCc1ccccc1`, the TGI in the assay on OVCAR-5 ovarian, in the assay with TK-10 renal, in the assay on 786-0 renal, in the assay with DLD-1 colon, in the assay with M19-MEL melanoma and in the assay with SR leukemia was over 100 µM throughout. Besides, the TGI with NCI-H226 lung and in the assay with NCI-H23 lung was over 100 µM each time.
`COc1ccccc1[N-]C(C1=C([O-])c2ccccc2C1=O)c1ccccc1.COc1ccccc1[N-]C(C1=C([O-])c2ccccc2C1=O)c1ccccc1.[Cu+2]` (stereo unspecified): the GI50 with TK-10 renal was 31.7 µM; in the assay on 786-0 renal, 7.76 µM; in the assay on DLD-1 colon it was 3.7 µM; in the assay on M19-MEL melanoma it was 41.7 µM; in the assay with SR leukemia, 8.58 µM; in the assay on NCI-H23 lung, 7.17 µM. Moreover, the TGI in the assay with TK-10 renal was 68.3 µM; in the assay on 786-0 renal it was over 100 µM; in the assay with DLD-1 colon, over 100 µM; in the assay on M19-MEL melanoma it was over 100 µM; in the assay on SR leukemia it was over 100 µM; with NCI-H23 lung, 61.2 µM.
Consider `O=C(CC1Sc2ccccc2NC1=O)Nc1cc(Cl)ccc1Cl` (stereo unspecified), for which the TGI with OVCAR-5 ovarian was over 100 µM; in the assay on TK-10 renal, over 100 µM; in the assay on 786-0 renal, over 100 µM; with DLD-1 colon, over 100 µM; in the assay on M19-MEL melanoma, over 100 µM; in the assay on SR leukemia, 82.1 µM. Moreover, the TGI with NCI-H226 lung and in the assay on NCI-H23 lung was over 100 µM in each case.
Turning to `CC(=O)/C(=C\c1ccco1)C(=O)Nc1ccccc1`, the TGI in the assay on TK-10 renal, in the assay with 786-0 renal, with DLD-1 colon, in the assay with M19-MEL melanoma, with SR leukemia and in the assay on NCI-H23 lung was over 100 µM each time.
